Assay results published in article PMC7531004, “Discovery of gramicidin A analogues with altered activities by multidimensional screening of a one-bead-one-compound library” (Nature Communications, 2020).
Values joined by “and” are separate entries in the source; they are usually repeats but may differ in a detail not shown here. Equal values may be shown once. Read-outs that look alike come from different tables or passages of the source. Where a SMILES comes first, the peptide text is derived from it. [ ]: non-standard residue; d: D form. The star is where a group is joined. NHCH2CH2OH = OCCN*; For = O=C*

Tests used:
[1] = tested on: P388 mouse leukemia cells; settings: 92 h
How it was run: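 P388 cells at 1 × 10^4 cells/mL (final) were exposed to library peptides (stocks diluted 250-fold in RPMI1640/10% FBS) for 92 h at 37 °C, 5% CO2. Viable cells were counted by WST-1/1-methoxy PMS (4 h), absorbance 415 nm, and expressed as cell viability (%).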

[2] = tested on: P388 mouse leukemia cell line
Description: (§1) Second, we examined the cytotoxicity toward mammalian cancer cells and hemolytic activity of 1. […] Hemolytic activity was evaluated by monitoring hemoglobin leakage from rabbit red blood cells as a consequence of membrane damage. The concentration of 1 required to cause 10% hemoglobin leakage (HC10) was 160 nM. Thus, the P388 cytotoxicity of 1 was 28-fold more sensitive than its hemolytic activity.
(§2) Mammalian cytotoxicity assay of purified peptides.
(§3) B22 was diluted with the growth medium with 2% DMSO to various concentrations as 5-fold serial dilution.
(§4) The collected cells were resuspended into
(§5) the growth medium at 2 × 10^4 cells/mL. Aliquots of the former medium (2% DMSO, 100 µL) containing
(§6) peptides and the latter medium containing P388 cells (100 µL) were mixed in a 96-well cell culture plate
(§7) (TR5003, TrueLine). The final concentration of P388 cells and DMSO were 1 × 10^4 cells/mL and 1%,
(§8) respectively. […]
(§9) were determined by WST -1 assay. A solution of 1-methoxy PMS and WST-1 in the growth medium
(§10) (1-methoxy PMS 0.70 mg/mL in Milli-Q/WST-1 3.6 mg/mL in pH 7.4 HEPES buffer = 1/9) was added to
(§11) each well of the plate (20.0 µL/well). The cells were incubated for 4 h under atmosphere of 5% CO 2 at
(§12) 37 °C. The absorbance of each well at 415 nm was measured using a Benchmark microplate reader
(§13) (Bio-Rad) or Thermo Scientifi c Multiskan GO (Thermo Fisher Scientific). The cytotoxicities of the purified
(§14) peptides were evaluated as IC 50 (nM) by means of three replicates. Sigmoidal curve fittings were performed

[3] = Description: as §1, §2, §3, §4, §5, §6, §7, §8, §9, §10, §11, §12, §13, §14
[4] = H+/Na+ transport assay of purified peptides; settings: for Supplementary Figure 5 dose-response value (H+/Na+ transport): three replicate lines
Description: First, we evaluated the ion channel function of 1 using liposomes. To mimic a negatively charged Gram-positive bacterial membrane, the liposomes were prepared as large unilamellar vesicles (LUVs) comprising a 19:1 mixture of egg yolk phosphatidylcholine (EYPC) and egg yolk phosphatidylglycerol (EYPG)[57]. Pyranine, a pH-dependent fluorescent dye[58], was encapsulated in the LUVs and a pH gradient was applied across the membrane. H^+/Na^+ transport induced by a peptide was monitored by changes in the fluorescence intensity of pyranine.

[5] = tested on: Streptococcus pyogenes SSI-9; experiment: Antibacterial activity assay of bead-derived peptides (three concentrations); format: cell-based; design: key: +++: inhibition by the 640-fold diluted peptide solution; ++: inhibition by the 160-fold diluted solution; +: inhibition by the 40-fold diluted solution; -: no inhibition; settings: S. pyogenes
How it was run: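 Undiluted, 4-fold and 16-fold DMSO-diluted peptide stocks; S. pyogenes SSI-9, 2 × 10^5 CFU, cation-adjusted MHB (50 mg/L Ca2+, 25 mg/L Mg2+) + 5% laked horse blood; 37 °C, 18 h; readout = cell pellet visible or not.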

[6] = H+/Na+ transport assay of bead-derived peptides (one-point); format: biochemical; design: key: relative activity; mean of two control wells = 1.00; settings: bead-derived peptide solution, EYPC/EYPG LUVs;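 further: relative to parent gramicidin A activity set to 1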
How it was run: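 Values are normalized fluorescence, with Triton X-100 defining 100% and untreated LUVs 0%, and the two control wells averaging 1.00. Vesicles carried 1.0 mM pyranine and included egg yolk phosphatidylglycerol. Peptides were incubated with them 30 min at room temperature.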

CC(C)C[C@@H](NC(=O)[C@H](C)NC(=O)CNC(=O)[C@@H](NC=O)C(C)C)C(=O)N[C@@H](C)C(=O)N[C@@H](C(=O)N[C@H](C(=O)N[C@@H](C(=O)N[C@@H](Cc1c[nH]c2ccccc12)C(=O)N[C@H](CC(C)C)C(=O)N[C@@H](Cc1c[nH]c2ccccc12)C(=O)N[C@H](CC(C)C)C(=O)N[C@@H](Cc1c[nH]c2ccccc12)C(=O)N[C@H](CC(C)C)C(=O)N[C@@H](Cc1c[nH]c2ccccc12)C(=O)NCCO)C(C)C)C(C)C)C(C)C [compound 1, Gramicidin A] (For-VGA[dL]A[dV]V[dV]W[dL]W[dL]W[dL]W-NHCH2CH2OH)
cell viability/% [1]: 100.0%
IC99.6 value (threshold concentration of one-point cytotoxicity assay) [2]: 30 nM
P388 cytotoxicity more sensitive than hemolytic activity [2]: 28 fold
IC50 ([3]; IC50, mammalian cytotoxicity assay): 4.86 nM
IC50 ([3]; cytotoxicity against P388 cells/IC50): 5.81 ± 0.99 nM
EC55.2 value (threshold concentration of one-point ion transport assay) ([4]; H+/Na+ transport): 5.9 nM
Supplementary Figure 5 dose-response value (H+/Na+ transport) ([4]; concentration 0.000512 nM): 0.1393 and -1.026 and 0.8168
Supplementary Figure 5 dose-response value (H+/Na+ transport) ([4]; concentration 0.00256 nM): 2.399 and 0.2926 and 2.304
Supplementary Figure 5 dose-response value (H+/Na+ transport) ([4]; concentration 0.0128 nM): 3.982 and 3.019 and 2.7829
Supplementary Figure 5 dose-response value (H+/Na+ transport) ([4]; concentration 0.064 nM): 7.464 and 5.495 and 5.604
Supplementary Figure 5 dose-response value (H+/Na+ transport) ([4]; concentration 0.32 nM): 9.988 and 12.6133 and 15.027
Supplementary Figure 5 dose-response value (H+/Na+ transport) ([4]; concentration 1.6 nM): 25.261 and 17.8892 and 24.5099
Supplementary Figure 5 dose-response value (H+/Na+ transport) ([4]; concentration 8 nM): 43.5648 and 41.9563 and 41.0019
Supplementary Figure 5 dose-response value (H+/Na+ transport) ([4]; concentration 40 nM): 66.4966 and 62.6758 and 58.9306
Supplementary Figure 5 dose-response value (H+/Na+ transport) ([4]; concentration 200 nM): 70.2683 and 64.7328 and 64.4099
Supplementary Figure 5 dose-response value (H+/Na+ transport) ([4]; concentration 1000 nM): 68.3656 and 69.2628 and 73.7672
Supplementary Figure 5 dose-response value (H+/Na+ transport) ([4]; concentration 5000 nM): 72.2926 and 68.3983 and 71.8941
EC50 ([4]; read-out: EC50, H+/Na+ transport assay, 1st experiment): 4.66 nM
EC50 ([4]; read-out: EC50, H+/Na+ transport assay, 2nd experiment): 3.91 nM
EC50 ([4]; read-out: EC50, H+/Na+ transport assay, 3rd experiment): 4.81 nM
EC50 ([4]; read-out: H+/Na+ transport activity EC50, EYPC/EYPG (19:1) LUVs): 4.5 nM
EC50 ([4]; read-out: H+/Na+ transport activity/EC50, mean ± SD of three independent experiments): 4.46 ± 0.48 nM
antibacterial activity in the library screening [5]: ++ or +
antibacterial activity ([5]; bead-derived peptide solution, three concentrations): -
H+/Na+ transport activity normalized against the value of 1 (1.00) [6]: 1.07
